In patent publication US8507533B2, “Glucagon receptor modulators” (Pfizer Inc., priority 2011, dated 2013) one finds Ki and Kb data, which are given here for nine molecules.

The target of test [1] is T1, human glucagon receptor (Homo sapiens (Human), UniProt P47871). The test can be described thus: Human Glucagon SPA Assay (binding of [125I]Glucagon-Cex). As to conditions: membrane from chem-1 cells stably transfected with the human glucagon receptor, Ki by Cheng-Prusoff equation.
Test [2] addresses T1, human glucagon receptor. The test can be described thus: Glucagon cAMP Assay (Cisbio cAMP detection). It is filed as cell-based. As to conditions: CHOK1 cells stably transfected with the human glucagon receptor; block of glucagon induced cAMP production; Kb by modified Cheng-Prusoff equation. In general terms: Cyclic AMP is a second messenger, typically raised through Gs and lowered through Gi signalling.

The Ki is a dissociation constant, usually derived from enzyme kinetics or from competition with a known ligand.

T1 sequence (P47871 26-477): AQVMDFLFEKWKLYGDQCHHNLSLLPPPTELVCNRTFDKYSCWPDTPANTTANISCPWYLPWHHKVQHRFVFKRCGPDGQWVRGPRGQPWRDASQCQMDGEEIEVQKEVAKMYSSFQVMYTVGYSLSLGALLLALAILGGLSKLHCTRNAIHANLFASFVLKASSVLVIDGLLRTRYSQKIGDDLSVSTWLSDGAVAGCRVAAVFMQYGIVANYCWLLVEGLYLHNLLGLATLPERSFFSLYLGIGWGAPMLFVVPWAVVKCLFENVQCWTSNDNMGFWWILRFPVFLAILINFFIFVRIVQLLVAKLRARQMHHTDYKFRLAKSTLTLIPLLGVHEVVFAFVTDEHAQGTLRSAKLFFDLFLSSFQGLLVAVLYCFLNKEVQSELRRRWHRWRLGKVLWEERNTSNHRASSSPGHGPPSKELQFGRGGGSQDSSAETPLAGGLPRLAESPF

With `Cc1cc(C(Nc2ccc(C(=O)NCCC(=O)O)cn2)C2CCCC2)cc(C)c1-n1cc(C(F)(F)F)cn1` (single isomer, unassigned; isomer 1) [Example 170, (3-(6-((cyclopentyl(3,5-dimethyl-4-(4-(trifluoromethyl)-1H-pyrazol-1-yl)phenyl)methyl)amino)nicotinamido)propanoic acid, Isomer 1], affinity on human glucagon receptor [1] was put at a Ki of 224 nM. This molecule returned a Kb on human glucagon receptor [2] of 1300 nM.
In turn, `O=C(O)CCNC(=O)c1ccc([C@H](CCC(F)(F)F)Nc2ccc(-n3cc(C(F)(F)F)cn3)nc2)cc1` (single isomer, unassigned; isomer 1) [Example 172, N-{4-[4,4,4-trifluoro-1-({6-[4-(trifluoromethyl)-1H-pyrazol-1-yl]pyridin-3-yl}amino)butyl]benzoyl}-beta-alanine, Isomer 1] showed an inhibition constant Ki at human glucagon receptor [1] of 8.18 nM. For the same molecule, the Kb on human glucagon receptor [2] is 59.9 nM.
In turn, `CC1(C)CC([C@H](Nc2ccc(-n3cc(C4CC4)cn3)nc2)c2ccc(C(=O)NCCC(=O)O)cc2)C1` (single isomer, unassigned; isomer 1) [Example 174, N-{-4-[{[6-(4-cyclopropyl-1H-pyrazol-1-yl)pyridin-3-yl]amino}(3,3-dimethylcyclobutyl)methyl]benzoyl}-beta-alanine, Isomer 1] registered a Ki on human glucagon receptor [1] of 57 nM. Further, the Kb on human glucagon receptor [2] came out at 252 nM.
Molecule `CC(C)(C)[C@H](Nc1ccc(-n2cc(C(F)(F)F)cn2)nc1)c1ccc(C(=O)NCCC(=O)O)cc1` (single isomer, unassigned; isomer 1) [Example 179, 3-(4-(2,2-dimethyl-1-((6-(4-(trifluoromethyl)-1H-pyrazol-1-yl)pyridin-3-yl)amino)propyl)benzamido)propanoic acid, Isomer 1] showed a Ki on human glucagon receptor [1] of 22.1 nM. Also, the Kb at human glucagon receptor [2] was found to be 134 nM.
`CC(C)(C)[C@H](Nc1ccc(-n2cnc(C(F)(F)F)c2)nc1)c1ccc(C(=O)NCCC(=O)O)cc1` (single isomer, unassigned; isomer 1) [Example 182, 3-(4-(2,2-dimethyl-1-((6-(4-(trifluoromethyl)-1H-imidazol-1-yl)pyridin-3-yl)amino)propyl)benzamido)propanoic acid, Isomer 1]: affinity at human glucagon receptor [1] was put at a Ki of 156 nM. In addition, on human glucagon receptor [2], the Kb is 424 nM.
Turning to `Cc1nn(-c2ccc(N[C@H](c3ccc(C(=O)NCCC(=O)O)cc3)C3CCCC3)cn2)cc1Cl` (single isomer, unassigned; isomer 1) [Example 191, 3-(4-((6-(4-chloro-3-methyl-1H-pyrazol-1-yl)pyridin-3-ylamino)(cyclopentyl)methyl)benzamido)propanoic acid, Isomer 1], the affinity at human glucagon receptor [1] corresponds to a Ki of 29.3 nM. At human glucagon receptor [2], the Kb stood at 11.7 nM.
At human glucagon receptor [1], `CC1(C)CC(C(Nc2cnc(-n3cc(C(F)(F)F)cn3)nc2)c2ccc(C(=O)NCCC(=O)O)cc2)C1` (single isomer, unassigned; isomer 2) [Example 158, 3-(4-((3,3-dimethylcyclobutyl)(2-(4-(trifluoromethyl)-1H-pyrazol-1-yl)pyrimidin-5-ylamino)methyl)benzamido)propanoic acid, Isomer 2] displayed a Ki of 41 nM. Moreover, the Kb at human glucagon receptor [2] turned out to be 155 nM.
Molecule `CCCC(Nc1ccc(-n2cc(-c3ccccc3)cn2)nc1)c1ccc(C(=O)NCCC(=O)O)cc1` (single isomer, unassigned; isomer 2) [Example 161, 3-(4-(1-(6-(4-phenyl-1H-pyrazol-1-yl)pyridine-3-ylamino)butyl)benzamido)propanoic acid, Isomer 2] displayed an inhibition constant Ki on human glucagon receptor [1] of 25.7 nM. The molecule also returned a Kb on human glucagon receptor [2] of 9.49 nM.
`CCCC(Nc1ccc(-n2cc(CC)c(C)n2)nc1)c1ccc(C(=O)NCCC(=O)O)cc1` (single isomer, unassigned; isomer 2) [Example 167, 3-(4-(1-(6-(4-ethyl-3-methyl-1H-pyrazol-1-yl)pyridin-3-ylamino)butyl)benzamido)propanoic acid, Isomer 2] displayed an inhibition constant (Ki) on human glucagon receptor [1] of 414 nM. Moreover, the Kb at human glucagon receptor [2] turned out to be 1140 nM.
